Experimental findings from US6930118B2, “3-Oxadiazol-5-yl-1-aminoalkyl-1h-indole derivatives” (Amrad Operations Pty. Ltd., priority 2001, dated 2005) are described below.

The target in this assay is T1, CB1 receptor (Rattus norvegicus, UniProt P20272).
T1 construct: the cerebellum was dissected away from the rest of the brain, weighed and homogenised; from tissue; host or cells: Sprague Dawley rat cerebellum membranes
The assay is described as follows: Radioligand binding assay, rat cerebellum membranes. How it is done:
The affinity of compounds at cannabinoid receptors is routinely assessed using ligand binding assays known to those skilled in the art. Radioligand binding assays were conducted using rat cerebellum or rat spleen. The cerebellum of the rat is known to express predominantly, if not exclusively, the CB1 receptor subtype (20,21). Thus, binding constants obtained from these studies are characterised by a single affinity value, as only one receptor type is labelled. […] In contrast, biphasic binding curves in the spleen characterised by two affinity constants represent the profile of compounds showing selectivity for one receptor subtype over another. In order to determine the order of selectivity, the high and low affinity values obtained for these compounds in the spleen binding assays were compared to the single affinity estimates obtained for the cerebellum (CB1) assays.
Sprague Dawley rats of either sex (200-300 g) were killed by gassing with 80% CO2 in O2 and decapitation, and the entire brain excised rapidly and placed in ice-cold Tris-HCl buffer (Tris 50 mM, MgCl2 3 mM, EGTA 0.2 mM, pH to 7.4 with HCl). On ice, the cerebellum was dissected away from the rest of the brain, weighed and homogenised (PT-DA 1205/2EC Polytron Aggregate; Kinematica, Luzernerstrasse Switzland) in 10 volumes of ice-cold Tris-HCl buffer. The homogenate was then made up to 20 volumes and centrifuged (Model J2-M1, Beckman, Fullerton, Calif., U.S.A.) at […] for 15 min at 4° C.). Subsequently, the supernatant was discarded, the pellet resuspended in 20 volumes of buffer and centrifuged as before. The resulting pellet was then resuspended in 20 volumes of buffer and assayed for protein content using the method of Bradford (Bradford, 1976) in a Novaspec II spectrophotometer (Pharmacia Biotech; with bovine serum albumin (BSA; Hömosafe BSA, c/o ‘ScimaR’ Templestowe, Australia) as the standard. The homogenate was then recentrifuged and the final pellet resuspended in Tris-HCl buffer at a protein concentration of 5 mg/ml and stored in 500 μl aliquots at −80° C. until used in the binding assay.
Ligand binding assays were performed in polypropylene tubes in a total volume of 1 ml containing Tris-HCl buffer, a final concentration of 1 mg/ml BSA, and varying concentrations of drugs. Tubes contained 30 μg of membrane protein and incubation was started by the addition of 100 μl of either 0.5 nM [^3H]SR141716A or 0.2 nM [^3H]WIN 55,212-2. Experiments were carried out in triplicate at 30° C. for 90 min with non-specific binding being defined as radioligand binding in the presence of 1 μM unlabelled WIN 55,212-2. Incubations were terminated by rapid filtration with a M-24 Cell Harvester (Brandel; Gaithersburg, Md., U.S.A.) using ice-cold Tris-HCl buffer containing 0.5 mg/ml BSA. Filters (Wattman GF/B) were soaked for 2 h prior to filtering in a solution of Tris-HCl buffer containing 3 mg/ml BSA and 0.5% w/w polyethyleneimine (PEI). Filters were left to dry thoroughly before placement into scintillation vials with 5 ml of scintillation cocktail (Ultima Gold LSC-cocktail; Packard Bioscience, Meriden, Conn., U.S.A.) being added. Vials were left to stand overnight before the radioactivity was determined using a Model 1409 DSA Liquid Scintillation counter (EG&E Wallac, Gaithersburg, Md., U.S.A.).
The resulting radioligand binding curves were analyzed by nonlinear regression using the program PRISM 3.0 (GraphPad Software, San Diego, Calif.) in order to derive ligand affinity estimates for the cannabinoid receptor(s).

T1 sequence (P20272 whole entry): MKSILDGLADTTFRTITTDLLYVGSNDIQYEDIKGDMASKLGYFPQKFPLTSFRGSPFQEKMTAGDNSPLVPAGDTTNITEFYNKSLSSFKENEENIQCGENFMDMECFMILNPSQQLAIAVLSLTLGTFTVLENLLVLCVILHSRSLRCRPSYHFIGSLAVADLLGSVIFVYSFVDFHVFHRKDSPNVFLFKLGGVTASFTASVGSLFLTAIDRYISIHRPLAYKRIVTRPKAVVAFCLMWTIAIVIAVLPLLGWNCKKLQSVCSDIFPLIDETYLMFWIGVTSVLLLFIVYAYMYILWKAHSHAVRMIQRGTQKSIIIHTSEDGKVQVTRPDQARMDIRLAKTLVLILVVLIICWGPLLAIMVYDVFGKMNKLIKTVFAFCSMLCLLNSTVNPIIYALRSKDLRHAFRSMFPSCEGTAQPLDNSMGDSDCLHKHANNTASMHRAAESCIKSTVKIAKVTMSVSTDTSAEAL

`c1ccc(Cc2noc(-c3cn(CCN4CCCC4)c4ccccc34)n2)cc1` [Compound 1, 3-(3-Benzyl-[1,2,4]-oxadiazol-5-yl)-1-[2-(pyrrolidin-1-yl)ethyl]-1H-indole]: the IC50 was 0.05 µM.

In general, IC50 refers to the concentration needed to halve the response being measured. A high value points to weaker potency.
